Four compounds from ChEMBL document CHEMBL1157284, “Role of glutamate and dopamine receptors in the psychopharmacological profile of the indole alkaloid psychollatine” (2006) can be followed below.

Active and inactive are the calls of the source. The calls are words filed in the database; no cut-off is given here.

Test [1] concerns Mus musculus. Nature of the test: Anticonvulsant activity against NMDA-induced seizures in mouse assessed as seizure latency at 0.3 mg/kg, ip administered 30 mins prior to NMDA challenge. The test is classed as functional. To be noted: route intraperitoneal.
Test [2] relates to Mus musculus. Nature of the test: Inhibition of apomorphine-induced climbing behavior in mouse at 0.2 mg/kg, ip administered 30 mins prior to apomorphine challenge. The test is classed as functional, organism-based. More on the design: dose 0.2 mg/kg.
For test [3], the system named is Mus musculus. Nature of the test: Anticonvulsant activity against NMDA-induced seizures in mouse assessed as seizure latency at 50 mg/kg, ip administered 30 mins prior to NMDA challenge. The test is classed as functional. Conditions: route intraperitoneal.
Test [4] deals with Mus musculus. Put plainly: Anticonvulsant activity against NMDA-induced seizures in mouse assessed as seizure latency at 75 mg/kg, ip administered 30 mins prior to NMDA challenge. The test is classed as functional. To be noted: route intraperitoneal.
Test [5] relates to Mus musculus. Nature of the test: Anticonvulsant activity against NMDA-induced seizures in mouse assessed as seizure latency at 100 mg/kg, ip administered 30 mins prior to NMDA challenge. The test is classed as functional. To be noted: route intraperitoneal.
Test [6] deals with Mus musculus. Nature of the test: Antipsychotic activity against MK-801-induced hyperlocomotion in mouse at 7.5 mg/kg administered 30 mins prior to MK-801 challenge measured after 30 mins. More on the design: dose 7.5 mg/kg. The test is classed as functional, organism-based.
The test system of test [7] is Mus musculus. Put plainly: Antipsychotic activity against MK-801-induced hyperlocomotion in mouse at 10 mg/kg administered 30 mins prior to MK-801 challenge measured after 30 mins. In kind it is functional, organism-based. Further details: dose 10 mg/kg.
Test [8] concerns Mus musculus. Nature of the test: Antipsychotic activity against MK-801-induced hyperlocomotion in mouse at 100 mg/kg administered 30 mins prior to MK-801 challenge measured after 30 mins. Further details: dose 100 mg/kg. The test is classed as functional, organism-based.
Test [9] has as its system Mus musculus. Nature of the test: Decrease in spontaneous locomotor activity in mouse at 7.5 mg/kg. In kind it is functional, organism-based. Further details: dose 7.5 mg/kg.
Test [10] has as its system Mus musculus. Put plainly: Decrease in spontaneous locomotor activity in mouse at 10 mg/kg. The test is classed as functional, organism-based. Further details: dose 10 mg/kg.
Test [11] deals with Mus musculus. Put plainly: Decrease in spontaneous locomotor activity in mouse at 100 mg/kg. Further details: dose 100 mg/kg. In kind it is functional, organism-based.
In test [12] the test system is Mus musculus. Nature of the test: Protective effect against amphetamine-induced lethality in mouse at 3 mg/kg, ip administered 30 mins prior to amphetamine challenge measured after 24 hrs. More on the design: dose 3 mg/kg. The test is classed as functional, organism-based.
The subject of test [13] is Mus musculus. Nature of the test: Protective effect against amphetamine-induced lethality in mouse at 10 mg/kg, ip administered 30 mins prior to amphetamine challenge measured after 24 hrs. In kind it is functional, organism-based. More on the design: dose 10 mg/kg.
Test [14] has as its system Mus musculus. Nature of the test: Protective effect against amphetamine-induced lethality in mouse at 30 mg/kg, ip administered 30 mins prior to amphetamine challenge measured after 24 hrs. More on the design: dose 30 mg/kg. The test is classed as functional, organism-based.
Test [15] deals with Mus musculus. Put plainly: Protective effect against amphetamine-induced lethality in mouse at 100 mg/kg, ip administered 30 mins prior to amphetamine challenge measured after 24 hrs. Further details: dose 100 mg/kg. In kind it is functional, organism-based.
For test [16], the system named is Mus musculus. Nature of the test: Inhibition of apomorphine-induced climbing behavior in mouse at 10 mg/kg, ip administered 30 mins prior to apomorphine challenge. The test is classed as functional, organism-based. Further details: dose 10 mg/kg.
Test [17] relates to Mus musculus. Nature of the test: Protective effect against amphetamine-induced lethality in mouse at 4 mg/kg, ip administered 30 mins prior to amphetamine challenge measured after 24 hrs. In kind it is functional, organism-based. More on the design: dose 4 mg/kg.

For the compound `C[C@]12N[C@H](Cc3ccccc31)c1ccccc12.O=C(O)/C=C\C(=O)O` [DIZOCILPINE MALEATE], the Activity in [1] worked out at 360 s. Moreover, the outcome in test [2] was Active.

Turning to `COC(=O)C1=CO[C@@H](O[C@H]2O[C@H](CO)[C@@H](O)[C@H](O)[C@H]2O)[C@@H]2C([C@@H]3NCCc4c3[nH]c3ccccc43)=CC[C@H]12` [PSYCHOLLATINE], the Activity was 850 s in test [3], 1020 s in test [4] and 857.14 s in [5]. The result in test [6], in test [7], in [8], in test [11], in test [12] and in test [13] was Active. For the same compound, the outcome in test [16] was Active. The outcome in [9], in test [10], in [14] and in test [15] was inactive.

As to `CN1C(=O)CN=C(c2ccccc2)c2cc(Cl)ccc21`, in [17], the outcome was inactive.

Consider `CN(C)CCCN1c2ccccc2Sc2ccc(Cl)cc21`, for which the outcome in [17] was Active.
